Measurements taken from ChEMBL document CHEMBL6134781, “In vitro identification of oridonin hybrids as potential anti-TNBC agents inducing cell cycle arrest and apoptosis by regulation of p21, γH2AX and cleaved PARP” (RSC Med Chem, 2024).

What was measured:
[1] = tested on: HCC1937; experiment: Induction of DNA damage in human HCC1937 cells assessed as increase in gamma-H2AX level incubated for 24 hrs by Western blot analysis; assay type: functional, cell-based; settings: dose 1-3 µM
[2] = tested on: HCC1806; experiment: Induction of cell cycle arrest in human HCC1806 cells assessed as accumulation at G2/M phase incubated for 16 hrs by PI staining based flow cytometry; assay type: functional; settings: dose 1-3 µM
[3] = tested on: HCC1937; experiment: Cytotoxicity against human HCC1937 cells assessed as inhibition of cell viability incubated for 72 hrs by SRB assay; assay type: functional, cell-based; settings: HCC1937, 72 h
[4] = tested on: MDA-MB-231; experiment: Induction of apoptosis in human MDA-MB-231 cells assessed as necrotic cells at 1 uM incubated for 16 hrs by Annexin V-FITC/PI staining based flow cytometry (reference value: 3.89 %); assay type: functional
[5] = tested on: HCC1937; experiment: Induction of apoptosis in human HCC1937 cells assessed as viable cells at 3 uM incubated for 24 hrs by Annexin V-FITC/PI staining based flow cytometry (reference value: 97.2 %); assay type: functional; settings: read-out: Activity
[6] = tested on: HCC1937; experiment: Induction of apoptosis in human HCC1937 cells assessed as early apoptotic cells at 3 uM incubated for 24 hrs by Annexin V-FITC/PI staining based flow cytometry (reference value: 0.74 %); assay type: functional
[7] = tested on: HCC1806; experiment: Induction of DNA damage in human HCC1806 cells assessed as increase in gamma-H2AX level incubated for 24 hrs by Western blot analysis; assay type: functional, cell-based; settings: dose 1-3 µM
[8] = tested on: HCC1937; experiment: Induction of apoptosis in human HCC1937 cells assessed as late apoptotic cells at 3 uM incubated for 24 hrs by Annexin V-FITC/PI staining based flow cytometry (reference value: 1.45 %); assay type: functional
[9] = tested on: MDA-MB-468; experiment: Effect on p21 expression in human MDA-MB-468 cells at 1 to 3 uM incubated for 16 hrs by Western blot analysis; assay type: functional, cell-based; settings: dose 1-3 µM
[10] = tested on: HCC1937; experiment: Induction of apoptosis in human HCC1937 cells assessed as necrotic cells at 1 uM incubated for 24 hrs by Annexin V-FITC/PI staining based flow cytometry (reference value: 0.58 %); assay type: functional
[11] = tested on: HCC1937; experiment: Induction of apoptosis in human HCC1937 cells assessed as late apoptotic cells at 1 uM incubated for 24 hrs by Annexin V-FITC/PI staining based flow cytometry (reference value: 1.45 %); assay type: functional
[12] = tested on: MDA-MB-468; experiment: Induction of cell cycle arrest in human MDA-MB-468 cells assessed as accumulation at G2/M phase incubated for 16 hrs by PI staining based flow cytometry; assay type: functional; settings: dose 1-3 µM
[13] = tested on: MDA-MB-468; experiment: Cytotoxicity against human MDA-MB-468 cells assessed as inhibition of cell viability incubated for 72 hrs by SRB assay; assay type: functional, cell-based; settings: MDA-MB-468, 72 h
[14] = tested on: MDA-MB-468; experiment: Induction of apoptosis in human MDA-MB-468 cells assessed as necrotic cells at 1 uM incubated for 24 hrs by Annexin V-FITC/PI staining based flow cytometry (reference value: 4.11 %); assay type: functional
[15] = tested on: MDA-MB-468; experiment: Induction of apoptosis in human MDA-MB-468 cells assessed as late apoptotic cells at 1 uM incubated for 24 hrs by Annexin V-FITC/PI staining based flow cytometry (reference value: 3.84 %); assay type: functional
[16] = tested on: HCC1806; experiment: Induction of apoptosis in human HCC1806 cells assessed as late apoptotic cells at 1 uM incubated for 24 hrs by Annexin V-FITC/PI staining based flow cytometry (reference value: 1.48 %); assay type: functional
[17] = tested on: MDA-MB-468; experiment: Induction of apoptosis in human MDA-MB-468 cells assessed as late apoptotic cells at 3 uM incubated for 24 hrs by Annexin V-FITC/PI staining based flow cytometry (reference value: 3.84 %); assay type: functional
[18] = tested on: HCC1937; experiment: Induction of apoptosis in human HCC1937 cells assessed as early apoptotic cells at 1 uM incubated for 24 hrs by Annexin V-FITC/PI staining based flow cytometry (reference value: 0.74 %); assay type: functional
[19] = tested on: MDA-MB-231; experiment: Induction of apoptosis in human MDA-MB-231 cells assessed as late apoptotic cells at 3 uM incubated for 16 hrs by Annexin V-FITC/PI staining based flow cytometry (reference value: 4.62 %); assay type: functional
[20] = tested on: MDA-MB-468; experiment: Induction of apoptosis in human MDA-MB-468 cells assessed as early apoptotic cells at 3 uM incubated for 24 hrs by Annexin V-FITC/PI staining based flow cytometry (reference value: 3.17 %); assay type: functional
[21] = tested on: MDA-MB-468; experiment: Induction of apoptosis in human MDA-MB-468 cells assessed as early apoptotic cells at 1 uM incubated for 24 hrs by Annexin V-FITC/PI staining based flow cytometry (reference value: 3.17 %); assay type: functional
[22] = tested on: HCC1806; experiment: Induction of apoptosis in human HCC1806 cells assessed as viable cells at 3 uM incubated for 24 hrs by Annexin V-FITC/PI staining based flow cytometry (reference value: 95.4 %); assay type: functional; settings: read-out: Activity
[23] = tested on: MDA-MB-231; experiment: Induction of DNA damage in human MDA-MB-231 cells assessed as increase in gamma-H2AX level incubated for 16 hrs by Western blot analysis; assay type: functional, cell-based; settings: dose 1-3 µM
[24] = tested on: MDA-MB-231; experiment: Induction of apoptosis in human MDA-MB-231 cells assessed as viable cells at 3 uM incubated for 16 hrs by Annexin V-FITC/PI staining based flow cytometry (reference value: 89.5 %); assay type: functional; settings: read-out: Activity
[25] = tested on: MDA-MB-231; experiment: Induction of apoptosis in human MDA-MB-231 cells assessed as early apoptotic cells at 1 uM incubated for 16 hrs by Annexin V-FITC/PI staining based flow cytometry (reference value: 1.94 %); assay type: functional
[26] = tested on: HCC1806; experiment: Induction of cell cycle arrest in human HCC1806 cells assessed as increase in p21 level incubated for 16 hrs by Western blot analysis; assay type: functional, cell-based; settings: dose 1-3 µM
[27] = tested on: MDA-MB-468; experiment: Induction of apoptosis in human MDA-MB-468 cells assessed as viable cells at 1 uM incubated for 24 hrs by Annexin V-FITC/PI staining based flow cytometry (reference value: 88.9 %); assay type: functional; settings: read-out: Activity
[28] = tested on: MDA-MB-231; experiment: Induction of apoptosis in human MDA-MB-231 cells assessed as late apoptotic cells at 1 uM incubated for 16 hrs by Annexin V-FITC/PI staining based flow cytometry (reference value: 4.62 %); assay type: functional
[29] = tested on: HCC1806; experiment: Induction of apoptosis in human HCC1806 cells assessed as early apoptotic cells at 1 uM incubated for 24 hrs by Annexin V-FITC/PI staining based flow cytometry (reference value: 3.06 %); assay type: functional
[30] = tested on: HCC1806; experiment: Induction of apoptosis in human HCC1806 cells assessed as viable cells at 1 uM incubated for 24 hrs by Annexin V-FITC/PI staining based flow cytometry (reference value: 95.4 %); assay type: functional; settings: read-out: Activity
[31] = tested on: MDA-MB-231; experiment: Induction of apoptosis in human MDA-MB-231 cells assessed as necrotic cells at 3 uM incubated for 16 hrs by Annexin V-FITC/PI staining based flow cytometry (reference value: 3.89 %); assay type: functional
[32] = tested on: MDA-MB-468; experiment: Induction of apoptosis in human MDA-MB-468 cells assessed as viable cells at 3 uM incubated for 24 hrs by Annexin V-FITC/PI staining based flow cytometry (reference value: 88.9 %); assay type: functional; settings: read-out: Activity
[33] = tested on: HCC1806; experiment: Induction of apoptosis in human HCC1806 cells assessed as increase in cleaved PARP-1 level incubated for 24 hrs by Western blot analysis; assay type: functional, cell-based; settings: dose 1-3 µM
[34] = tested on: HCC1806; experiment: Induction of cell cycle arrest in human HCC1806 cells assessed as decrease in accumulation at S phase incubated for 16 hrs by PI staining based flow cytometry; assay type: functional; settings: dose 1-3 µM
[35] = tested on: MDA-MB-231; experiment: Cytotoxicity against human MDA-MB-231 cells assessed as inhibition of cell viability incubated for 72 hrs by SRB assay; assay type: functional, cell-based; settings: MDA-MB-231, 72 h

## C=C1C(=O)[C@]23[C@H](OC(=O)C45CC6CC(CC(C6)C4)C5)[C@H]1CC[C@H]2[C@@]12CO[C@]3(O)[C@@H](O)[C@@H]1C(C)(C)CC[C@@H]2O
[1]
  Activity: Dose-dependent-effect
[2]
  Activity: Dose-dependent-effect
[3]
  IC50: 620 nM
[4]
  Activity: 0.32%
[5]
  viability at 3 µM: 71.1%
[6]
  Activity: 4.23%
[7]
  Activity: Dose-dependent-effect
[8]
  Activity: 24.1%
[9]
  Activity: No effect
[10]
  Activity: 0.33%
[11]
  Activity: 2.34%
[12]
  Activity: Dose-dependent-effect
[13]
  IC50: 410 nM
[14]
  Activity: 0.22%
[15]
  Activity: 7.11%
[16]
  Activity: 2.8%
[17]
  Activity: 3.22%
[18]
  Activity: 1.23%
[19]
  Activity: 20.4%
[20]
  Activity: 30%
[21]
  Activity: 5.18%
[22]
  viability at 3 µM: 74.8%
[23]
  Activity: Dose-dependent-effect
[24]
  viability at 3 µM: 71.6%
[25]
  Activity: 4.31%
[26]
  Activity: Dose-dependent-effect
[27]
  viability at 1 µM: 87.5%
[28]
  Activity: 1.92%
[29]
  Activity: 4.92%
[30]
  viability at 1 µM: 92.2%
[31]
  Activity: 4.46%
[32]
  viability at 3 µM: 66.3%
[33]
  Activity: Dose-dependent-effect
[34]
  Activity: Dose-dependent-effect
[35]
  IC50: 400 nM
